In PubChem BioAssay (NCI):
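Where inhibition never reached the appropriate level, the endpoint shown equals the highest concentration tested. Otherwise, values were interpolated linearly from a five-concentration, 48-hour dose response in 96-well plates. At the GI50, growth is halved. TGI: concentration producing complete growth inhibition.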

Tested on: MDA-MB-468 breast
Test: NCI tumour cell line growth inhibition, 48 h

SMILES	GI50	TGI
NC1=C(Cl)C(=O)c2ccc(S(N)(=O)=O)cc2C1=O	181 nM	486 nM
CN1CCC[C@@H]1CCO[C@](C)(c1ccccc1)c1ccc(Cl)cc1	1660 nM	3510 nM
CCN(CC)CCOc1ccc(/C(=C(\C)Cc2ccc(OC)cc2)c2ccc(OC(=O)NCc3ccccc3)cc2)cc1	1900 nM	3960 nM
O=C1C(=O)c2ccccc2-c2ccccc21	1700 nM	3530 nM
C=C1C(=O)O[C@H]2[C@H]1CC/C(Cn1cc(Cn3ccc4ccccc43)nn1)=C\CC[C@@]1(C)O[C@@H]21	717 nM	2480 nM
CCN(CC)c1ccc2c(c1)Oc1nc(N)c(C#N)c(N)c1C2Sc1ccc(C)cc1 (stereo not given)	1620 nM	3140 nM
COc1ccc(/C(C)=C(\c2ccc(Cl)cc2)c2ccc(OCCN3CCCC3)cc2)cc1F	3350 nM	7180 nM
COc1ccc(-c2cnc3ccnn3c2-c2cc(OC)c(OC)c(OC)c2)cc1	2640 nM	> 100000 nM
COc1ccc(N(CC(=O)NCCC[Te]c2ccccc2)C(=O)CCSC2=C(C)C(=O)c3ccccc3C2=O)cc1	1670 nM	3390 nM
Cc1cccc2c(N=Nc3ccc(S(N)(=O)=O)cc3)c(O)[nH]c12	> 25000 nM	> 25000 nM
CCCc1cc2cc(-n3nc(C)c4c3CC(C)(C)CC4=O)cc(NC3CCC(O)CC3)c2c(=O)[nH]1 (stereo not given)	47.5 nM	> 100000 nM
COc1cc(/C=C2\CN(C)C/C(=C\c3cc(OC)c(OC)c(OC)c3)C2=O)cc(OC)c1OC	266 nM	849 nM
CN[C@]12CC3(C=CC(=O)C=C3)O[C@@]1(Cc1ccc(OC)cc1)N(C)C(=O)N2	1250 nM	3500 nM
CCCCCCCC/C=C/CCCCCCCC1=NC(C)(C)CN1C(C)C	1310 nM	2700 nM
C/C(CC(=O)NNc1ccc([N+](=O)[O-])cc1)=N\Nc1ccc([N+](=O)[O-])cc1	28100 nM	> 100000 nM
O=C1OCc2c1cc(F)cc2[N+](=O)[O-]	> 100000 nM	> 100000 nM
O=C1/C(=C\C(Cl)=C/c2ccc([N+](=O)[O-])cc2)SC(=S)N1CCc1ccc(O)cc1	405 nM	1740 nM
O=C(O)C(CSC(c1ccccc1)(c1ccccc1)c1ccccc1)N=Cc1cccs1 (stereo not given)	232 nM	922 nM
Cc1c2c(nn1C(=O)c1nn(-c3ccc(Cl)cc3)cc1O)-c1ccccc1CC2	250 nM	> 58200 nM
O=C(O)c1ccc2c(c1Nc1ccccc1)C(=O)c1ccccc1C2=O	31800 nM	> 100000 nM
